Measurements published in ChEMBL document CHEMBL1909046, “DrugMatrix in vitro pharmacology data”.

Columns and labels:
[1] = target: T1, Cholecystokinin receptor type A (Homo sapiens, UniProt P32238); format: cell membranes, Membrane; conditions: 1321-n1; further: in other assays of this panel Not Active means under 50% inhibition at 10 µM
T1 sequence (P32238 whole entry): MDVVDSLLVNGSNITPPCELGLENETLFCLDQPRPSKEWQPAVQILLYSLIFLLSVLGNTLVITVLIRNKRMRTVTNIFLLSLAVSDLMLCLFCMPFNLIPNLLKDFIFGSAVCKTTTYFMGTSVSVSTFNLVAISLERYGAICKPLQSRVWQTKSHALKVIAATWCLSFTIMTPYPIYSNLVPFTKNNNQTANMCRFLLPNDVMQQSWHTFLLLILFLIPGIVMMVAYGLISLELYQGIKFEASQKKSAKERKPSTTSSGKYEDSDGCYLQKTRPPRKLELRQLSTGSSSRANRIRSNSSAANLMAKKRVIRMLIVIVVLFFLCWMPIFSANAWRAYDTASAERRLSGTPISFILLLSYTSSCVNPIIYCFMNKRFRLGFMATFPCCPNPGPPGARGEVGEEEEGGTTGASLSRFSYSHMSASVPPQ

D(4) dopamine receptor = target: T2, D(4) dopamine receptor (Homo sapiens, UniProt P21917); assay: DRUGMATRIX: Dopamine D4.2 radioligand binding (ligand: [3H] Spiperone); format: cell membranes, CHO-K1, Membrane; conditions: cho-k1; Not Active = under 50% inhibition at 10 µM
T2 sequence (P21917 whole entry): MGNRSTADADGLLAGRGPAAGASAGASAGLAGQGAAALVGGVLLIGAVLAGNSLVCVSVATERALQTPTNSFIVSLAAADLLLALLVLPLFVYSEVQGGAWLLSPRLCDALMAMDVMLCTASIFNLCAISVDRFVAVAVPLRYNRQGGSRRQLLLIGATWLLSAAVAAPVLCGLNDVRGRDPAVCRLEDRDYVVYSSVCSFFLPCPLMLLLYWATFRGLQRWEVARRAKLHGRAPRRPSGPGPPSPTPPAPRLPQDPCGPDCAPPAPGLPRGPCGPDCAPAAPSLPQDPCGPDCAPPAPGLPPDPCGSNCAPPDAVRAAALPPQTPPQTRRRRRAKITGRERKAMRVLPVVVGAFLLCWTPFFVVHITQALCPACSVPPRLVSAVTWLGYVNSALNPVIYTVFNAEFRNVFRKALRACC

Histamine H2 receptor = Histamine H2 receptor (Homo sapiens, UniProt P25021); format: cell membranes, CHO-K1, Membrane; conditions: cho-k1; further: in other assays of this panel Not Active means under 50% inhibition at 10 µM
Histamine H2 receptor, sequence (P25021 whole entry): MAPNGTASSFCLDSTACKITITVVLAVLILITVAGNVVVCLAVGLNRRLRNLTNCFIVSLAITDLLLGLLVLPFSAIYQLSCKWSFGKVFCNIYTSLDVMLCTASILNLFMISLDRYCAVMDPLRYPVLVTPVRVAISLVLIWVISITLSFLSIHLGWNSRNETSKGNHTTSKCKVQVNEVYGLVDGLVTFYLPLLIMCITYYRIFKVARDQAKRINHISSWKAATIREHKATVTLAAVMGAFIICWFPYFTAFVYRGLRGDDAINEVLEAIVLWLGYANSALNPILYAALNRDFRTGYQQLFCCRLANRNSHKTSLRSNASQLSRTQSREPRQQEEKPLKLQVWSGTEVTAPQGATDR

[2] = DRUGMATRIX: Potassium Channel [KATP] radioligand binding (ligand: [3H] Glyburide); format: cell membranes, Membrane; conditions: hit-t15; Not Active = under 50% inhibition at 10 µM
Cathepsin G = target: T3, Cathepsin G (Homo sapiens, UniProt P08311); format: tissue-based; conditions: neutrophil;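 further: inhibition of Cathepsin G enzyme activity, tested on an AMC-conjugated peptide substrate; in other assays of this panel Not Active means under 50% inhibition at 10 µM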
T3 sequence (P08311 whole entry): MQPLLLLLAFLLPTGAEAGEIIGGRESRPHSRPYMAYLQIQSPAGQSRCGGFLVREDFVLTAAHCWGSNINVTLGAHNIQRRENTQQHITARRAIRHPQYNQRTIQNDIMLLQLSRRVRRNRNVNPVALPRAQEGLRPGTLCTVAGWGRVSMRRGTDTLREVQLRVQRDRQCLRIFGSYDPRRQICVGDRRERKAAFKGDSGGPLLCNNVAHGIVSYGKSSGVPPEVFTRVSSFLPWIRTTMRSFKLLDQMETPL

[3] = target: Matrix metalloproteinase-9 (Homo sapiens, UniProt P14780); format: cell-based;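 further: inhibition of isolated MMP-9 enzyme activity toward a synthetic peptide substrate, from the DrugMatrix protease screening panel; in other assays of this panel Not Active means under 50% inhibition at 10 µM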
Matrix metalloproteinase-9, sequence (P14780 whole entry): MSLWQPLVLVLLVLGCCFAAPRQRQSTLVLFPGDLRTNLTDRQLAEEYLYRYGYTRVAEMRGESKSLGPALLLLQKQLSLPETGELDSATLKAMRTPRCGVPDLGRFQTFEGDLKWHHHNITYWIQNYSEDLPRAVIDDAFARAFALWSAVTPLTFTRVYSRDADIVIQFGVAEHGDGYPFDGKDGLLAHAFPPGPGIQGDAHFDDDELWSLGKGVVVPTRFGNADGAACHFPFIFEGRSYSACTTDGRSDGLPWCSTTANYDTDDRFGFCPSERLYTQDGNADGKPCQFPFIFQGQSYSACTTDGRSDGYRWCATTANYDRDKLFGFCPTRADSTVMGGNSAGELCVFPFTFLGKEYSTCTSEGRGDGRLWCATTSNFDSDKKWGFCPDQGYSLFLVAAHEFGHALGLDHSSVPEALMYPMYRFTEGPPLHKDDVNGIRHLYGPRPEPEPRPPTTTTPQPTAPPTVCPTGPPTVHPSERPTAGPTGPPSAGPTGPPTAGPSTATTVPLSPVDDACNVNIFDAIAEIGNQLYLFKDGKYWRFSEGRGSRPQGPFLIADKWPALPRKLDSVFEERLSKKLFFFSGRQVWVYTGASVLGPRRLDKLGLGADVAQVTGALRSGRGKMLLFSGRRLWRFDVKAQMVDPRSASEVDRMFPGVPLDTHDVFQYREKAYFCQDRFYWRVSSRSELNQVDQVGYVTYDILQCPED

[4] = target: T4, Receptor-type tyrosine-protein phosphatase C (Homo sapiens, UniProt P08575); set-up: species or system Escherichia coli
T4 sequence (P08575 whole entry): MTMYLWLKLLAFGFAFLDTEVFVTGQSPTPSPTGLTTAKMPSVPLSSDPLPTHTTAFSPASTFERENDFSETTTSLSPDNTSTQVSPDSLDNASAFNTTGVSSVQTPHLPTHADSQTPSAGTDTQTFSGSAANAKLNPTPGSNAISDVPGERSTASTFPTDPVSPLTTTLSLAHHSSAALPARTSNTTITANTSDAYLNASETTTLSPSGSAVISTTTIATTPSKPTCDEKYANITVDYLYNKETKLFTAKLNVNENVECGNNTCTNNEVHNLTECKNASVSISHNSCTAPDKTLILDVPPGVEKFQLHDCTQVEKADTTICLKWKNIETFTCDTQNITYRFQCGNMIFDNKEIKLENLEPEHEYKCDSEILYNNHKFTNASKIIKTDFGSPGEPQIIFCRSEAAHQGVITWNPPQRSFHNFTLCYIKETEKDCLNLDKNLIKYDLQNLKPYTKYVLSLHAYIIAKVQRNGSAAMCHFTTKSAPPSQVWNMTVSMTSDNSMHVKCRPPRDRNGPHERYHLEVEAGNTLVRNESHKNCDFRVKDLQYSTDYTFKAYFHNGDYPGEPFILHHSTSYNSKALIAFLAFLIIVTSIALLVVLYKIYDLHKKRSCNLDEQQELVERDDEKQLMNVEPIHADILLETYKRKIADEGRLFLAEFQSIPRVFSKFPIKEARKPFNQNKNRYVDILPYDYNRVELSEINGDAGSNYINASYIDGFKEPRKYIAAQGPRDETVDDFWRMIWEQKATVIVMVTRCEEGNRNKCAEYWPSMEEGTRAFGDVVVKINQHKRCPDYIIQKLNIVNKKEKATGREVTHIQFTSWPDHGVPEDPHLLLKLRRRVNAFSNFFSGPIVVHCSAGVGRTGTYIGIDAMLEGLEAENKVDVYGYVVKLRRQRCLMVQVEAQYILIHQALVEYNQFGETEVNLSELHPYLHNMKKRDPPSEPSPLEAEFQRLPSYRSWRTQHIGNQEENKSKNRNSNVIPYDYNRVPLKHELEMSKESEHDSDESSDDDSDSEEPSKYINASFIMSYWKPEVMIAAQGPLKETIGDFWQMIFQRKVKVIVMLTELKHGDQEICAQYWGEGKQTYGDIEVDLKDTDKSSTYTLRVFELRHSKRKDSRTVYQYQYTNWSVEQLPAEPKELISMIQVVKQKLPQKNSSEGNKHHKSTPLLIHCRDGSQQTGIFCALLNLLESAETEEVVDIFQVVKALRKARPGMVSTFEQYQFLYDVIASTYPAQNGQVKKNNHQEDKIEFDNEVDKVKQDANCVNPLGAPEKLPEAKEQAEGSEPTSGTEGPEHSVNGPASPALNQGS

COc1ccc(C(CN(C)C)C2(O)CCCCC2)cc1 (stereo unspecified) [VENLAFAXINE]
Not Active: IC50 [1] | IC50 (D(4) dopamine receptor) | IC50 (Histamine H2 receptor) | IC50 [2] | Ki [2] | IC50 (Cathepsin G) | IC50 [3] | IC50 [4]

CC(C)(C)NC(=O)[C@@H]1CN(Cc2cccnc2)CCN1C[C@@H](O)C[C@@H](Cc1ccccc1)C(=O)N[C@H]1c2ccccc2C[C@H]1O.O
Not Active: IC50 [1] | IC50 (D(4) dopamine receptor) | IC50 (Histamine H2 receptor) | IC50 [2] | Ki [2] | IC50 (Cathepsin G) | IC50 [3] | IC50 [4]

COC(=O)[C@@H]1[C@H]2C[C@H]3c4[nH]c5ccccc5c4CCN3C[C@@H]2CC[C@@H]1O [YOHIMBINE]
Not Active: IC50 [1] | IC50 (D(4) dopamine receptor) | IC50 (Histamine H2 receptor) | IC50 [2] | Ki [2] | IC50 (Cathepsin G) | IC50 [3] | IC50 [4]

Clc1ccc(C(c2ccccc2Cl)C(Cl)Cl)cc1 (stereo unspecified) [MITOTANE]
Not Active: IC50 [1] | IC50 (D(4) dopamine receptor) | IC50 (Histamine H2 receptor) | IC50 [2] | Ki [2] | IC50 (Cathepsin G) | IC50 [3] | IC50 [4]

Oc1c(I)cc(I)c2cccnc12 [IODOQUINOL]
Not Active: IC50 [1] | IC50 (D(4) dopamine receptor) | IC50 (Histamine H2 receptor) | IC50 [2] | Ki [2] | IC50 (Cathepsin G) | IC50 [3] | IC50 [4]

CN[C@@H]1[C@@H](O)[C@@H](O[C@@H]2[C@@H](O)[C@H](O[C@H]3OC(CN)=CC[C@H]3N)[C@@H](N)C[C@H]2N)OC[C@]1(C)O [SISOMICIN]
Not Active: IC50 [1] | IC50 (D(4) dopamine receptor) | IC50 (Histamine H2 receptor) | IC50 [2] | Ki [2] | IC50 (Cathepsin G) | IC50 [3] | IC50 [4]

NNc1ccccc1 [PHENYLHYDRAZINE]
Not Active: IC50 [1] | IC50 (D(4) dopamine receptor) | IC50 (Histamine H2 receptor) | IC50 [2] | Ki [2] | IC50 (Cathepsin G) | IC50 [3] | IC50 [4]
